Data as given in PubChem BioAssay (NCI).
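Dose response: 5 concentrations. Exposure: 48 h. Format: 96-well plates. Endpoint: linear interpolation; highest concentration if not reached. Here, GI50 denotes the concentration required for 50% inhibition of growth. TGI is the concentration that stops growth completely.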

Assays:
Assay in all cases: NCI anticancer screen, dose series, 48 h
[1] = tested on: UACC-257 melanoma
[2] = tested on: HOP-62 NSCLC
[3] = tested on: U251 CNS
[4] = tested on: MCF7 breast
[5] = tested on: HCC-2998 colon
[6] = tested on: CAKI-1 renal
[7] = tested on: SW-620 colon
[8] = tested on: LOX IMVI melanoma
[9] = tested on: EKVX NSCLC
[10] = tested on: SR leukemia
[11] = tested on: TK-10 renal
[12] = tested on: SK-MEL-28 melanoma
[13] = tested on: HCT-116 colon
[14] = tested on: KM12 colon
[15] = tested on: IGROV1 ovarian
[16] = tested on: SNB-75 CNS
[17] = tested on: RPMI-8226 leukemia
[18] = tested on: A549 NSCLC
[19] = tested on: NCI-H522 lung
[20] = tested on: ACHN renal
[21] = tested on: NCI-H460 lung
[22] = tested on: RXF 393 renal
[23] = tested on: NCI/ADR-RES ovarian
[24] = tested on: HS 578T breast
[25] = tested on: K-562 leukemia
[26] = tested on: NCI-H226 lung
[27] = tested on: CCRF-CEM leukemia
[28] = tested on: T-47D breast
[29] = tested on: 786-0 renal
[30] = tested on: SK-MEL-5 melanoma
[31] = tested on: COLO 205 colon
[32] = tested on: HOP-92 NSCLC
[33] = tested on: SNB-19 CNS
[34] = tested on: SK-MEL-2 melanoma
[35] = tested on: PC-3 prostate
[36] = tested on: HT29 colon
[37] = tested on: DU-145 prostate
[38] = tested on: SF-295 CNS
[39] = tested on: SK-OV-3 ovarian
[40] = tested on: UACC-62 melanoma
[41] = tested on: MALME-3M melanoma
[42] = tested on: MDA-MB-231 breast
[43] = tested on: UO-31 renal
[44] = tested on: SF-268 CNS
[45] = tested on: BT-549 breast
[46] = tested on: A498 renal
[47] = tested on: SF-539 CNS
[48] = tested on: MOLT-4 leukemia
[49] = tested on: OVCAR-8 ovarian
[50] = tested on: OVCAR-4 ovarian
[51] = tested on: SN12C renal
[52] = tested on: MDA-MB-435
[53] = tested on: OVCAR-3 ovarian
[54] = tested on: OVCAR-5 ovarian
[55] = tested on: NCI-H23 lung
[56] = tested on: HCT-15 colon

Structure (SMILES): OCCCCC#Cc1ccccc1C#Cc1ccccn1
- GI50 [1]: 28.8 µM
- TGI [1]: 87.2 µM
- GI50 [2]: 29.4 µM
- TGI [2]: > 100 µM
- GI50 [3]: 31.2 µM
- TGI [3]: > 100 µM
- GI50 [4]: 37.8 µM
- TGI [4]: > 100 µM
- GI50 [5]: 26.4 µM
- TGI [5]: 72.9 µM
- GI50 [6]: 28.6 µM
- TGI [6]: > 100 µM
- GI50 [7]: 45.7 µM
- TGI [7]: > 100 µM
- GI50 [8]: 27.7 µM
- TGI [8]: > 100 µM
- GI50 [9]: 27.7 µM
- TGI [9]: 67 µM
- GI50 [10]: 25.5 µM
- TGI [10]: 96.2 µM
- GI50 [11]: 61 µM
- TGI [11]: > 100 µM
- GI50 [12]: 31 µM
- TGI [12]: > 100 µM
- GI50 [13]: 30.8 µM
- TGI [13]: > 100 µM
- GI50 [14]: 29.7 µM
- TGI [14]: > 100 µM
- GI50 [15]: 27.2 µM
- TGI [15]: > 100 µM
- GI50 [16]: 14.9 µM
- TGI [16]: 51.5 µM
- GI50 [17]: 16.4 µM
- TGI [17]: 37.4 µM
- GI50 [18]: 33.6 µM
- TGI [18]: > 100 µM
- GI50 [19]: 22.2 µM
- TGI [19]: 56 µM
- GI50 [20]: 31.8 µM
- TGI [20]: > 100 µM
- GI50 [21]: 24.8 µM
- TGI [21]: 76.4 µM
- GI50 [22]: 25 µM
- TGI [22]: 62.3 µM
- GI50 [23]: 27.3 µM
- TGI [23]: 77.4 µM
- GI50 [24]: 25.6 µM
- TGI [24]: 88.3 µM
- GI50 [25]: 29 µM
- TGI [25]: > 100 µM
- GI50 [26]: 31.3 µM
- TGI [26]: > 100 µM
- GI50 [27]: 31.4 µM
- TGI [27]: > 100 µM
- GI50 [28]: 15.9 µM
- TGI [28]: 80.6 µM
- GI50 [29]: 38.3 µM
- TGI [29]: > 100 µM
- GI50 [30]: 19.1 µM
- TGI [30]: 41.4 µM
- GI50 [31]: 31.1 µM
- TGI [31]: > 100 µM
- GI50 [32]: 26.6 µM
- TGI [32]: 94.6 µM
- GI50 [33]: 42.1 µM
- TGI [33]: > 100 µM
- GI50 [34]: 41.6 µM
- TGI [34]: > 100 µM
- GI50 [35]: 24.6 µM
- TGI [35]: 73.9 µM
- GI50 [36]: 26.1 µM
- TGI [36]: > 100 µM
- GI50 [37]: 9.78 µM
- TGI [37]: 74.6 µM
- GI50 [38]: 21.8 µM
- TGI [38]: 65.2 µM
- GI50 [39]: > 100 µM
- TGI [39]: > 100 µM
- GI50 [40]: 23.1 µM
- TGI [40]: > 100 µM
- GI50 [41]: 27.1 µM
- TGI [41]: > 100 µM
- GI50 [42]: 21 µM
- TGI [42]: 64.9 µM
- GI50 [43]: 32.3 µM
- TGI [43]: > 100 µM
- GI50 [44]: 29.8 µM
- TGI [44]: > 100 µM
- GI50 [45]: 15.8 µM
- TGI [45]: 47.4 µM
- GI50 [46]: 8.99 µM
- TGI [46]: 49.7 µM
- GI50 [47]: 17.8 µM
- TGI [47]: 42.7 µM
- GI50 [48]: 21.4 µM
- TGI [48]: > 100 µM
- GI50 [49]: 32.4 µM
- TGI [49]: > 100 µM
- GI50 [50]: 30.3 µM
- TGI [50]: > 100 µM
- GI50 [51]: 32.1 µM
- TGI [51]: > 100 µM
- GI50 [52]: 25.1 µM
- TGI [52]: 79.4 µM
- GI50 [53]: 26.1 µM
- TGI [53]: 77.3 µM
- GI50 [54]: > 100 µM
- TGI [54]: > 100 µM
- GI50 [55]: 25.2 µM
- TGI [55]: > 100 µM
- GI50 [56]: 29.8 µM
- TGI [56]: > 100 µM
